The assay has as its system GS-CHO cells. In words: Spike-in of single purified metabolites into Medium A, growth of GS-CHO cells monitored 5 or 6 days. It counts as cell-based, Chinese hamster. On the procedure:
GS-CHO cells producing a recombinant antibody were inoculated at low viable cell densities (0.1E6 cells/mL) in various conditions in 5 ml volume, 6-well plate cultures. […] The pH of the Medium A, spiked-in with any one of the nine metabolites or any combination of the nine metabolites, was adjusted to 7 before inoculating the cells (on day 0).
For indolelactate, the stock solution (500 mM) was prepared in DMSO. […] All the conditions were run in duplicates or triplicates. Growth of the cells in above described conditions was monitored for 5 or 6 days.

[1] abbreviates: metabolite alone at concentrations higher than 0.5 mM or 1 mM.

Turning to `CCC(O)C(=O)O` (stereo not shown) [2-hydroxybutyric acid], under setting [1], the “effect on growth of cells” value is “Modest inhibition of growth”.
On the same count and under the same terms, the result for `O=C(O)C(O)Cc1ccc(O)cc1` (stereo not shown) [3-(4-hydroxyphenyl)lactate] reads “Modest inhibition of growth”.
Consider `O=CO` [Formate], for which, under “metabolite alone at concentrations 2 mM and beyond”, the “effect on growth of cells” value is reported as “negative effect on growth”.
Take `N[C@@H](CCS)C(=O)O` [Homocysteine]: under setting [1], the “effect on growth of cells” value is on record as “Modest inhibition of growth”.
With `O=C(O)c1c[nH]c2ccccc12` [Indolecarboxylic acid], the “effect on growth of cells” value (metabolite alone at concentrations of 1 mM or lower) is on record as “potent negative effect on growth of cells”.
For `O=C(O)C(O)Cc1c[nH]c2ccccc12` (stereo not shown) [Indolelactate], the “effect on growth of cells” value (metabolite alone at concentrations of 3 mM or below, DMSO control included) is “little or no effect on growth of cells”.
In the case of Phenyllactate [Phenyllactate (PLA)], under “metabolite alone at 1 mM concentration”, the “effect on growth of cells” value is “mild effect on growth of cells”.

Values taken from US12584113B2, “Method of cell culture” (Pfizer Inc., priority 2014, dated 2026).
